Tested on: C666-1 cells
Experiment: C666-1 Cell Viability Assay (Resazurin cytotoxicity test)
Format: cell-based
Settings: Homo sapiens, C6661, EB virus-positive C666-1 cells, 72 hours treatment, 100-0.78 micromole/L, read-out: Inhibitory Rate
Summary of the method: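 EBV-positive nasopharyngeal carcinoma C666-1 cells, 5×10^3 per well, were grown 24 h, then exposed to compound for 72 h at 37 °C (8-point two-fold dilutions, final 100–0.78 µM). Viability was read by resazurin reduction fluorescence after 3 h; EC50 came from the fitted inhibition curve.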

SMILES | EC50
O=C(O)c1cccc(N2CC(Oc3ccc(COc4cccnc4)c(F)c3)C2)c1-n1cccc1 [Example 20a, 3-(3-(3-fluoro-4-((pyridin-3-yloxy)methyl)phenoxy)azetidin-1-yl)-2-(1H-pyrrol-1-yl) benzoic acid] | 10 to 50 µM
COC(=O)c1cccc(N2CC(Oc3ccc(COc4cccnc4)cc3)C2)c1-c1ccccc1 [Example 17, methyl 6-(3-(4-((pyridin-3-yloxy)methyl)phenoxy)azetidin-1-yl)-[1,1′-biphenyl]-2-carboxylate] | 1 to 10 µM
COC(=O)c1cccc(N2CC(Oc3ccc(CCc4cccnc4)cc3)C2)c1-n1cccc1 [Example 29, methyl 3-(3-(4-(2-(pyridin-3-yl)ethyl)phenoxy)azetidin-1-yl)-2-(1H-pyrrol-1-yl) benzoate] | > 50 µM
COC(=O)c1cccc(C#Cc2ccc(NC(=O)Cc3cccnc3)cc2)c1-c1ccccc1 [Example 62, methyl 6-((4-(2-(pyridin-3-yl)acetamido)phenyl)ethynyl)-[1,1′-biphenyl]-2-carboxylate] | < 1 µM
O=C(O)c1cccc(N2CC(Oc3ccc(COc4ccccn4)cc3)C2)c1-n1cccc1 [Example 12a, 3-(3-(4-((pyridin-2-yloxy)methyl)phenoxy)azetidin-1-yl)-2-(1H-pyrrol-1-yl) benzoic acid] | > 50 µM
O=C(O)c1cccc(N2CC(Oc3ccc(Oc4cccnc4)cc3)C2)c1-n1cccc1 [Example 25a, 3-(3-(4-(pyridin-3-yloxy)phenoxy)azetidin-1-yl)-2-(1H-pyrrol-1-yl) benzoic acid] | > 50 µM
COC(=O)c1cccc(C#Cc2ccc(CC(=O)Nc3cccnc3)cc2)c1-c1ccccc1 [Example 60, methyl 6-((4-(2-oxo-2-(pyridin-3-ylamino)ethyl)phenyl)ethynyl)-[1,1′-biphenyl]-2-carboxylate] | < 1 µM
O=C(Nc1ccc(OC2CN(c3cccc(C(=O)O)c3-n3cccc3)C2)cc1)Nc1cccc(C(F)(F)F)c1 [Example 10a, 2-(1H-pyrol-1-yl)-3-(3-(4-(3-(3-(trifluoromethyl)phenyl)ureido)phenoxy)azetidin-1-yl) benzoic acid] | 10 to 50 µM
CONC(=O)c1cccc(N2CC(Oc3ccc(NC(=O)Cc4cccnc4)cc3)C2)c1-c1ccccc1 [Example 45d, N-methoxy-6-(3-(4-(2-(pyridin-3-yl)acetamido)phenoxy)azetidin-1-yl)-[1,1′-biphenyl]-2-carboxamide] | 10 to 50 µM
COC(=O)c1cccc(N2CC(Oc3ccc(CNc4cccnc4)cc3)C2)c1-c1cccc(Cl)c1 [Example 38, methyl 3′-chloro-6-(3-(4-((pyridin-3-ylamino)methyl)phenoxy)azetidin-1-yl)-[1,1′-biphenyl]-2-carboxylate] | 10 to 50 µM
O=C(O)c1cccc(N2CC(Oc3ccc(CNc4cccnc4)cc3)C2)c1-c1cccc(Cl)c1 [Example 38a, 3′-chloro-6-(3-(4-((pyridin-3-ylamino)methyl)phenoxy)azetidin-1-yl)-[1,1′-biphenyl]-2-carboxylic acid] | 10 to 50 µM
COC(=O)c1cccc(N2CC(Oc3ccc(COc4cccnc4)cc3)C2)c1-n1cccc1 [Example 1, methyl 3-(3-(4-((pyridin-3-yloxy)methyl)phenoxy)azetidin-1-yl)-2-(1H-pyrrol-1-yl) benzoate] | 1 to 10 µM
COC(=O)c1cccc(N2CC(Oc3ccc(COCc4cccnc4)cc3)C2)c1-n1cccc1 [Example 27, methyl 3-(3-(4-((pyridin-3-ylmethoxy)methyl)phenoxy)azetidin-1-yl)-2-(1H-pyrrol-1-yl) benzoate] | 10 to 50 µM
COC(=O)c1cccc(N2CC(Oc3ccc(NC(=O)Cc4cccnc4)cc3)C2)c1C [Example 53, methyl 2-methyl-3-(3-(4-(2-(pyridin-3-yl)acetamido)phenoxy)azetidin-1-yl) benzoate] | 10 to 50 µM
COC(=O)c1cccc(C#Cc2ccc(NC(=O)Nc3cccnc3)cc2)c1-c1ccccc1 [Example 58, methyl 6-((4-(3-(pyridin-3-yl)ureido)phenyl)ethynyl)-[1,1′-biphenyl]-2-carboxylate] | < 1 µM
O=C(Cc1cccnc1)Nc1ccc(OC2CN(c3cccc(C(=O)O)c3Cl)C2)cc1 [Example 55a, 2-chloro-3-(3-(4-(2-(pyridin-3-yl)acetamido)phenoxy)azetidin-1-yl) benzoic acid] | 10 to 50 µM
CN(C)C(=O)c1cccc(N2CC(Oc3ccc(COc4cccnc4)cc3)C2)c1-n1cccc1 [Example 1e, N,N-dimethyl-3-(3-(4-((pyridin-3-yloxy)methyl)phenoxy)azetidin-1-yl)-2-(1H-pyrrol-1-yl) benzamide] | 1 to 10 µM
O=C(NO)c1cccc(N2CC(Oc3ccc(COc4cncnc4)cc3)C2)c1-n1cccc1 [Example 14b, N-hydroxy-3-(3-(4-((pyrimidin-5-yloxy)methyl)phenoxy)azetidin-1-yl)-2-(1H-pyrrol-1-yl) benzamide] | 1 to 10 µM
O=C(O)c1cccc(N2CC(Oc3ccc(COc4cnc5ccccc5c4)cc3)C2)c1-n1cccc1 [Example 9a, 2-(1H-pyrrol-1-yl)-3-(3-(4-((quinolin-3-yloxy)methyl)phenoxy)azetidin-1-yl) benzoic acid] | > 50 µM
c1cncc(OCc2ccc(OC3CN(c4ccccc4-n4cccc4)C3)cc2)c1 [Example 1g, 3-((4-((1-(2-(1H-pyrrole-1-yl)phenyl)azetidin-3-yl)oxy)benzyl)oxy) pyridine] | 10 to 50 µM
COC(=O)c1cccc(N2CC(Oc3ccc(NC(=O)Nc4cccnc4)cc3)C2)c1-c1ccccc1 [Example 42, methyl 6-(3-(4-(3-(pyridin-3-yl)ureido)phenoxy)azetidin-1-yl)-[1,1′-biphenyl]-2-carboxylate] | < 1 µM
COC(=O)c1cccc(N2CC(Oc3ccc(CNc4cccnc4)cc3)C2)c1-n1cccc1 [Example 23, methyl 3-(3-(4-((pyridin-3-ylamino)methyl)phenoxy)azetidin-1-yl)-2-(1H-pyrrol-1-yl) benzoate] | 10 to 50 µM

— patent publication US20240308987A1, “SMALL MOLECULE INHIBITOR AGAINST NASOPHARYNGEAL CARCINOMA, PREPARATION METHOD AND APPLICATION THEREOF” (SHENZHEN BAY LABORATORY, priority 2021, published 2024)
